# Like-named read-outs stand apart in the source and are kept apart here.
# How the values were obtained:
# [1] = target: T1, GKRP (Glucokinase Regulatory Protein) with human His-hepatic GK (Homo sapiens, UniProt Q14397); assay: biochemical
# T1 sequence (Q14397 1-625): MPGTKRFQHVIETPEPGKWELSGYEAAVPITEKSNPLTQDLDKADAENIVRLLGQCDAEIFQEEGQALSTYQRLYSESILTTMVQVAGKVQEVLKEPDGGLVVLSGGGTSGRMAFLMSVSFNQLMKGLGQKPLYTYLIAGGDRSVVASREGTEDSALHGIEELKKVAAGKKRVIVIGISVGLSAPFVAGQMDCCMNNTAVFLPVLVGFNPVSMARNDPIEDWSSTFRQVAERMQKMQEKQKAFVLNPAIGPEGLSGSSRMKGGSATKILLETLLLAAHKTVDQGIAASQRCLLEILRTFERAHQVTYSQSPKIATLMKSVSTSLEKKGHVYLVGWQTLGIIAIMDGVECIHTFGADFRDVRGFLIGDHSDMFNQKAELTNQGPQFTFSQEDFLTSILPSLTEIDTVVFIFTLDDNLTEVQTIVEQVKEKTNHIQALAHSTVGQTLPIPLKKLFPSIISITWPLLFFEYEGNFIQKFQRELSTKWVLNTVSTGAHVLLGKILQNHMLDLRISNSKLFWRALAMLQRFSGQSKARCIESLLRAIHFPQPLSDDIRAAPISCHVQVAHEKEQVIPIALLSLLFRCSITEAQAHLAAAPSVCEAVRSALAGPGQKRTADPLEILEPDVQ
# Method: GKRP LC MS/MS-2 Biochemical Assay
# This assay is used to directly measure the formation of ^13C-glucose-6-phosphate from ^13C-glucose by LC MS/MS. Begin by preparing the following solutions: Compound Buffer (CB): 50 mM Tris, pH 7.5/4 mM MgCl2/6% DMSO/fresh 10 mM DTT from 1M frozen stock. Enzyme Buffer (EB): 50 mM Tris, pH 7.5/4 mM MgCl2/6% DMSO/fresh 0.1% BSA/fresh 0.01% Brij-35 (10% BSA and 1% Brij-35 stock). GK (Glucokinase) Working Stock (5×): Dilute human His-hepatic GK to 30 nM in EB buffer. […] After 30 minutes add 10 μl of GK Working Stock (5×). Re-seal the plate and incubate for another 30 minutes at room temperature while mixing. After the second 30 minutes, stop the reaction by the addition of 50 μl of 100% acetonitrile, seal, and mix for 5-10 minutes. Run 10 μl of this sample through the LC MS/MS (API 3200, Applied Biosystems, Carlsbad, Calif.).
# [2] = target: T2, interaction between glucokinase (GK) and glucokinase regulatory protein (GKRP) (Homo sapiens, UniProt Q14397); assay: biochemical; type: binding; conditions: read-out: GK-GKRP IC50 (Binding)
# T2 sequence (Q14397 1-625): T1 sequence (Q14397 1-625)
# How it was run: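 Avi-tagged human GKRP preincubated with compound for 20 min at room temperature, then 6 nM GK-fluorescein (concentration of added solution) introduced and incubated 2 h in the dark. Buffer: 20 mM Tris pH 7.5, 0.05% BSA, 1 mM DTT, 1 μM sorbitol-6-phosphate. Plate read on a fluorescence reader.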
# [3] = 13C-glucose-6-phosphate formation, 280 nM GKRP (10×), 30 nM GK (5×), read-out: GK-GKRP EC50 (LC MS/MS-2)
# [4] = avi-tagged GKRP, GK-fluorescein, AlphaScreen beads
Structure (SMILES),"EC50 [1, 3] [nM]","IC50 [2, 4] [nM]","EC50 ([1]; GK-GKRP EC50 (LC MS/MS-2), 13C-glucose-6-phosphate formation, 280 nM GKRP (10×), 30 nM GK (5×)) [nM]",EC50 ([1]; read-out: GK-GKRP EC50 (LC MS/MS-2)) [nM],IC50 [2] [nM]
"CN(C)C(=O)CC1COCCN1C[C@H]1CN(S(=O)(=O)c2cccs2)CCN1c1ccc(C(C)(O)C(F)(F)F)cc1 (mixture of isomers) [Example 114, N,N-dimethyl-2-(4-(((2S)-4-(2-thiophenylsulfonyl)-1-(4-(2,2,2-trifluoro-1-hydroxy-1-methylethyl)phenyl)-2-piperazinyl)methyl)-3-morpholinyl)acetamide]",124,90,–,–,–
"CC(O)(c1ccc(N2CCN(S(=O)(=O)c3ccc(N)s3)CC2)cc1)C(F)(F)F (racemic) [Example 90, 2-(4-(4-((5-amino-2-thiophenyl)sulfonyl)-1-piperazinyl)phenyl)-1,1,1-trifluoro-2-propanol]",836,448,–,–,–
CC(O)(c1cnc(N2CCN(S(=O)(=O)c3ccc(N)nc3)C[C@@H]2CC2CCOCC2)nc1)C(F)(F)F (mixture of isomers) [Example 131],102,124,–,–,–
"CC(O)(c1ccc(N2CCN(S(=O)(=O)c3cccs3)C[C@@H]2CN2C3COCC2C(O)C3)cc1)C(F)(F)F (single isomer, unassigned; peak #4) [Example 77 Peak #4]",65,42,–,–,–
"Nc1ccc(S(=O)(=O)N2CCN(c3ncc(C(O)(C(F)(F)F)C(F)(F)F)cn3)[C@@H](CC3CCOCC3)C2)cn1 [Example 130, 2-(2-((2S)-4-((6-amino-3-pyridinyl)sulfonyl)-2-(tetrahydro-2H-pyran-4-ylmethyl)-1-piperazinyl)-5-pyrimidinyl)-1,1,1,3,3,3-hexafluoro-2-propanol]",134,62,–,–,–
"CC1(C)C(=O)NCCN1C[C@H]1CN(S(=O)(=O)c2cccs2)CCN1c1ccc(C(C)(O)C(F)(F)F)cc1 (mixture of isomers) [Example 180, 3,3-dimethyl-4-(((2S)-4-(2-thiophenylsulfonyl)-1-(4-(2,2,2-trifluoro-1-hydroxy-1-methylethyl)phenyl)-2-piperazinyl)methyl)-2-piperazinone]",51,22,–,–,–
"CC(O)(c1ccc(N2CCN(S(=O)(=O)c3cccs3)C[C@@H]2COCC2CCCO2)cc1)C(F)(F)F (mixture of isomers) [Example 118, 1,1,1-trifluoro-2-(4-((2R)-2-((tetrahydro-2-furanylmethoxy)methyl)-4-(2-thiophenylsulfonyl)-1-piperazinyl)phenyl)-2-propanol]",1110,570,–,–,–
"C[C@H]1CN(S(=O)(=O)c2ccc(N)s2)CCN1c1ccc(C(O)(C(F)(F)F)C(F)(F)F)cc1 [Example 149, 2-(4-((2S)-4-((5-amino-2-thiophenyl)sulfonyl)-2-methyl-1-piperazinyl)phenyl)-1,1,1,3,3,3-hexafluoro-2-propanol]",109,450,–,–,–
"CC(O)(c1ccc(N2CCN(S(=O)(=O)c3cccs3)C[C@@H]2CN(c2ccccc2)S(C)(=O)=O)cc1)C(F)(F)F (mixture of isomers) [Example 204, N-phenyl-N-(((2R)-4-(2-thiophenylsulfonyl)-1-(4-(2,2,2-trifluoro-1-hydroxy-1-methylethyl)phenyl)-2-piperazinyl)methyl)methanesulfonamide]",32,4,–,–,–
"CC(C)N(C[C@H]1CN(S(=O)(=O)c2ccc(N)s2)CCN1c1ncc(C(O)(C(F)(F)F)C(F)(F)F)cn1)S(C)(=O)=O [Example 231, N-(((2R)-4-((5-amino-2-thiophenyl)sulfonyl)-1-(5-(2,2,2-trifluoro-1-hydroxy-1-(trifluoromethyl)ethyl)-2-pyrimidinyl)-2-piperazinyl)methyl)-N-(1-methylethyl)methanesulfonamide]",20,7,–,–,–
"O=S(=O)(c1cccs1)N1CCN(c2ncc(C(O)(C(F)(F)F)C(F)(F)F)cn2)[C@@H](CC2CCOCC2)C1 [Example 134, 1,1,1,3,3,3-hexafluoro-2-(2-((2S)-2-(tetrahydro-2H-pyran-4-ylmethyl)-4-(2-thiophenylsulfonyl)-1-piperazinyl)-5-pyrimidinyl)-2-propanol]",79,122,–,–,–
"COCC#Cc1cc(C(O)(C(F)(F)F)C(F)(F)F)ccc1N1CCN(S(=O)(=O)c2cccs2)CC1 [Example 153, 1,1,1,3,3,3-hexafluoro-2-(3-(3-methoxyprop-1-YNYL)-4-(4-(thiophen-2-ylsulfonyl)piperazin-1-yl)phenyl)propan-2-ol]",675,363,–,–,–
"CC(C)C1C(=O)NCCN1C[C@H]1CN(S(=O)(=O)c2cccs2)CCN1c1ccc(C(C)(O)C(F)(F)F)cc1 (single isomer, unassigned) [Example 181 Peak #2]",14,1,–,–,–
"CC(O)(c1ccc(N2CCN(S(=O)(=O)c3cccs3)C[C@@H]2CN(C2COC2)S(C)(=O)=O)cc1)C(F)(F)F (mixture of isomers) [Example 207, N-3-oxetanyl-N-(((2R)-4-(2-thiophenylsulfonyl)-1-(4-(2,2,2-trifluoro-1-hydroxy-1-methylethyl)phenyl)-2-piperazinyl)methyl)methanesulfonamide]",257,241,–,–,–
"C[C@H]1COCCN1C[C@H]1CN(S(=O)(=O)c2ccc(N)nc2)CCN1c1ccc(C(C)(O)C(F)(F)F)cc1 (single isomer, unassigned) [Example 125 Peak #2]",18,7,–,–,–
"C[C@H]1CN(S(=O)(=O)c2ccccc2N)CCN1c1ccc(C(O)(C(F)(F)F)C(F)(F)F)cc1 [Example 168, 2-(4-((2S)-4-((2-aminophenyl)sulfonyl)-2-methyl-1-piperazinyl)phenyl)-1,1,1,3,3,3-hexafluoro-2-propanol]",533,660,–,–,–
"CC(O)(c1ccc(N2CCN(S(=O)(=O)c3cccs3)C[C@@H]2CNC2CCOCC2)cc1)C(F)(F)F (mixture of isomers) [Example 120, 1,1,1-trifluoro-2-(4-((2S)-2-((tetrahydro-2H-pyran-4-ylamino)methyl)-4-(2-thiophenylsulfonyl)-1-piperazinyl)phenyl)-2-propanol]",–,493,656,–,–
"CC(O)(c1ccc(N2CCN(S(=O)(=O)c3cccs3)C[C@@H]2CN2CCOC[C@H]2CO)cc1)C(F)(F)F (single isomer, unassigned) [Example 110 Peak #2]",–,–,–,132,79
"CC(=O)N(C[C@H]1CN(S(=O)(=O)c2cccs2)CCN1c1ccc(C(C)(O)C(F)(F)F)cc1)C(C)C (mixture of isomers) [Example 196, N-(1-methylethyl)-N-(((2S)-4-(2-thiophenylsulfonyl)-1-(4-(2,2,2-trifluoro-1-hydroxy-1-methylethyl)phenyl)-2-piperazinyl)methyl)acetamide]",391,466,–,–,–
"CC(O)(c1ccc(N2CCN(S(=O)(=O)c3cccs3)C[C@@H]2COCc2ccco2)cc1)C(F)(F)F (mixture of isomers) [Example 116, 1,1,1-trifluoro-2-(4-((2R)-2-((2-furanylmethoxy)methyl)-4-(2-thiophenylsulfonyl)-1-piperazinyl)phenyl)-2-propanol]",103,284,–,–,–
"O=S(=O)(c1cccs1)N1CCN(c2ccc(C(O)(C(F)(F)F)C(F)(F)F)cc2C#CCCO)CC1 [Example 150, 4-(2-(4-(2-thiophenylsulfonyl)-1-piperazinyl)-5-(2,2,2-trifluoro-1-hydroxy-1-(trifluoromethyl)ethyl)phenyl)-3-butyn-1-ol]",895,656,–,–,–

# From patent US8431563B2 (priority 2010, dated 2013)
